# Assay results taken from patent US20130310256A1, “HERBICIDAL COMPOSITIONS COMPRISING 4-AMINO-3-CHLORO-5-FLUORO-6-(4-CHLORO-2-FLUORO-3-METHOXYPHENYL) PYRIDINE-2-CARBOXYLIC ACID OR A DERIVATIVE THEREOF AND VLCFA AND LIPID SYNTHESIS INHIBITING HERBICIDES” (DOW AGROSCIENCES LLC, priority 2008, published 2013).
# How the values were obtained:
# DIGSA = assay: Example I: postemergence foliar-applied weed control, greenhouse; format: in vivo, Digitaria sanguinalis (L.) Scop. (large crabgrass); conditions: 20 DAA; 560 gai/ha
# Excerpt: (§1) Seeds or nutlets of the desired test plant species were planted in a soil matrix prepared by mixing a loam or sandy loam soil (e.g., 28.6 percent silt, 18.8 percent clay, and 52.6 percent sand, with a pH of about 5.8 and an organic matter content of about 1.8 percent) and calcareous grit in an 80 to 20 ratio. The soil matrix was contained in plastic pots with a volume of 1 quart and a surface area of 83.6 square centimeters (cm^2). When required to ensure good germination and healthy plants, a fungicide treatment and/or other chemical or physical treatment was applied. The plants were grown for 8-22 days in a greenhouse with an approximate 14 hr photoperiod which was maintained at about 29° C. during the day and 26° C. during the night. Nutrients (Peters Excel® 15-5-15 5-Ca 2-Mg and iron chelate) were applied in the irrigation solution as needed and water was added on a regular basis. Supplemental lighting was provided with overhead metal halide 1000-Watt lamps as necessary. The plants were employed for testing when they reached the first through fourth true leaf stage.
# (§2) Treatments consisted of the acid or esters of 4-amino-3-chloro-5-fluoro-6-(4-chloro-2-fluoro-3-methoxy-phenyl)pyridine-2-carboxylic acid (Compound A), each formulated as an SC (suspension concentrate), and various herbicidal components alone and in combination. Forms of compound A were applied on an acid equivalent basis.
# (§3) Other herbicidal components were applied on an active ingredient basis and included very long chain fatty acid (VLCFA) synthesis-inhibiting and fatty acid/lipid synthesis-inhibiting herbicides acetochlor (technical grade material), acetochlor+dichlormid formulated as Topnotch®, pretilachlor (technical grade material), butachlor formulated as Butachlor EC, fentrazamide formulated as Fentrazamide EC, thiobencarb formulated as Bolero® 8EC, cafenstrole formulated as Himeadow® WP or Lapost® Flowable, benfuresate formulated as Full Shot®, dimethenamid-P formulated as Outlook®, indanofan (technical grade material), flufenacet formulated as Define® DF, mefenacet (technical grade material), S-metolachlor formulated as Dual® II Magnum, pethoxamid formulated as Successor® 600, and pyroxasulfone (technical grade material).
# (§4) Treatment requirements were calculated based upon the rates being tested, the concentration of active ingredient or acid equivalent in the formulation, and a 12 mL application volume at a rate of 187 L/ha.
# (§5) For treatments comprised of formulated compounds, measured amounts of compounds were placed individually in 25 mL glass vials and diluted in a volume of 1.25% (v/v) Agri-Dex® crop oil concentrated to obtain 12× stock solutions. […] Application solutions were prepared by adding an appropriate amount of each stock solution (e.g., 1 mL) and diluted to the appropriate final concentrations with the addition of 10 mL of an aqueous mixture of 1.25% (v/v) crop oil concentrate so that the final spray solutions contained 1.25+/−0.05% (v/v) crop oil concentrate.
# (§6) For treatments comprised of technical compounds, weighed amounts can be placed individually in 25 mL glass vials and dissolved in a volume of 97:3 v/v acetone/DMSO to obtain 12× stock solutions. […] Application solutions can be prepared by adding an appropriate amount of each stock solution (e.g., 1 mL) and diluted to the appropriate final concentrations with the addition of 10 mL of an aqueous mixture of 1.5% (v/v) crop oil concentrate so that the final spray solutions contain 1.25% (v/v) crop oil concentrate. When technical materials are used, the concentrated stock solutions can be added to the spray solutions so that the final acetone and DMSO concentrations of the application solutions are […], respectively. […]
# ECHCO = assay: as above; format: in vivo, Echinochloa colona (L.) Link (junglerice); conditions: 20 DAA
# Excerpt: as §1, §2, §3, §4, §5, §6
# CYPIR = assay: as above; format: in vivo, Cyperus iria L. (rice flatsedge); conditions: 20 DAA
# Excerpt: as §1, §2, §3, §4, §5, §6
# ISCRU = assay: as above; format: in vivo, Ischaemum rugosum Salisb. (saramollagrass); conditions: 21 DAA
# Excerpt: as §1, §2, §3, §4
# For treatments comprised of formulated compounds, measured amounts of compounds were placed individually in 25 mL glass vials and diluted in a volume of 1.25% (v/v) Agri-Dex® crop oil concentrated to obtain 12× stock solutions. […]
# ECHOR = assay: Example II: in-water applied weed control, transplanted paddy rice, greenhouse; format: in vivo, Echinochloa oryzoides (Ard.) Fritsch (early watergrass)
# Description: (§7) Weed seeds or nutlets of the desired test plant species were planted in puddled soil (mud) prepared by mixing a shredded, non-sterilized mineral soil (50.5 percent silt, 25.5 percent clay, and 24 percent sand, with a pH of about 7.6 and an organic matter content of about 2.9 percent) and water at a 1:1 volumetric ratio. The prepared mud was dispensed in 365 mL aliquots into 16-ounce (oz.) non-perforated plastic pots with a surface area of 86.59 square centimeters (cm^2) leaving a headspace of 3 centimeters (cm) in each pot. Mud was allowed to dry overnight prior to planting or transplanting. Rice seeds were planted in Sun Gro MetroMix® 306 planting mixture, which typically has a pH of 6.0 to 6.8 and an organic matter content of about 30 percent, in plastic plug trays. Seedlings at the second or third leaf stage of growth were transplanted into 840 mL of mud contained in 32-oz. non-perforated plastic pots with a surface area of 86.59 cm^2 4 days prior to herbicide application. The paddy was created by filling the headspace of the pots with 2.5 to 3 cm of water. When required to ensure good germination and healthy plants, a fungicide treatment and/or other chemical or physical treatment was applied. The plants were grown for 4-22 days in a greenhouse with an approximate 14 hr photoperiod which was maintained at about 29′C during the day and 26° C. during the night. Nutrients were added as Osmocote® (19:6:12, N:P:K+ minor nutrients) at 2 g per 16-oz. pot and 4 g per 32-oz. pot. Water was added on a regular basis to maintain the paddy flood, and supplemental lighting was provided with overhead metal halide 1000-Watt lamps as necessary. The plants were employed for testing when they reached the first through fourth true leaf stage.
# as §2, with “(compound A)” for “(Compound A),”, “concentrate)” for “concentrate),”
# (§8) The herbicidal components were applied on an active ingredient basis and included very long chain fatty acid (VLCFA) synthesis-inhibiting and fatty acid/lipid synthesis-inhibiting herbicides acetochlor (technical grade material), acetochlor+dichlormid formulateded as Topnotch®, pretilachlor (technical grade material), butachlor formulated as Butachlor EC, fentrazamide formulated as Fentrazamide EC, thiobencarb formulated as Bolero® 8EC, cafenstrole formulated as Himeadow® WP or Lapost® Flowable, benfuresate formulated as Full Shot®, anilofos (technical grade material), mefenacet (technical grade material), molinate (technical grade material), and thenylchlor (technical grade material).
# (§9) Treatment requirements for each compound or herbicidal component were calculated based upon the rates being tested, the concentration of active ingredient or acid equivalent in the formulation, an application volume of 2 mL per component per pot, and an application area of 86.59 cm^2 per pot.
# (§10) For formulated compounds, a measured amount was placed in an individual 100 or 200 mL glass vial and was dissolved in a volume of 1.25% (v/v) Agri-Dex® crop oil concentrate to obtain application solutions.
# (§11) For technical grade compounds, a weighed amount was placed in an individual 100 to 200 mL glass vial and was dissolved in a volume of acetone to obtain concentrated stock solutions. […] The concentrated stock solutions obtained were diluted with an equivalent volume of an aqueous mixture containing 2.5% (v/v) crop oil concentrate so that the final application solutions contained 1.25% (v/v) crop oil concentrate.
# (§12) Applications were made by injecting with a pipetter appropriate amounts of the application solutions, individually and sequentially, into the aqueous layer of the paddy. Control plants were treated in the same manner with the solvent blank. […]
# CYPRO = assay: as above; format: in vivo, Cyperus rotundus L. (purple nutsedge); conditions: 20 DAA
# Description: as §7
# as §2, with “(compound A)” for “(Compound A),”, “concentrate)” for “concentrate),”
# as §8, §9, §10, §11, §12
# CHEAL = assay: Example III: post-emergence foliar-applied weed control in cereal crops, greenhouse; format: in vivo, Chenopodium album L.; conditions: 21 DAA
# Description: (§13) Seeds of the desired test plant species were planted in Sun Gro MetroMix® 306 planting mixture, which typically has a pH of 6.0 to 6.8 and an organic matter content of about 30 percent, in plastic pots with a surface area of 103.2 square centimeters (cm^2). When required to ensure good germination and healthy plants, a fungicide treatment and/or other chemical or physical treatment was applied. The plants were grown for 7-36 days in a greenhouse with an approximate 14 hour photoperiod which was maintained at about 18° C. during the day and 17° C. during the night. Nutrients and water were added on a regular basis and supplemental lighting was provided with overhead metal halide 1000-Watt lamps as necessary. The plants were employed for testing when they reached the second or third true leaf stage.
# (§14) Treatments consisted of the benzyl ester of 4-amino-3-chloro-5-fluoro-6-(4-chloro-2-fluoro-3-methoxy-phenyl)pyridine-2-carboxylic acid (Compound A), formulated as an SC (suspension concentrate), and a second cereal herbicide alone and in combination.
# (§15) Measured aliquots of the benzyl ester of 4-amino-3-chloro-5-fluoro-6-(4-chloro-2-fluoro-3-methoxy-phenyl)pyridine-2-carboxylic acid (Compound A) were placed in 25 milliliter (mL) glass vials and diluted in a volume of 1.25% (v/v) Agri-dex crop oil concentrated to obtain stock solutions. Compound requirements are based upon a 12 mL application volume at a rate of 187 liters per hectare (L/ha). Spray solutions of the second cereal herbicide and experimental compound mixtures were prepared by adding the stock solutions to the appropriate amount of dilution solution to form 12 mL spray solution with active ingredients in two- and three-way combinations. Formulated compounds were applied to the plant material with an overhead Mandel track sprayer equipped with an 8002E nozzle calibrated to deliver 187 L/ha over an application area of 0.503 square meters (m^2) at a spray height of 18 inches (46 cm) above average plant canopy. Control plants were sprayed in the same manner with the solvent blank.
# (§16) The treated plants and control plants were placed in a greenhouse as described above and watered by sub-irrigation to prevent wash-off of the test compounds. After 20-22 days, the condition of the test plants as compared with that of the control plants was determined visually and scored on a scale of 0 to 100 percent where 0 corresponds to no injury and 100 corresponds to complete kill.
# (§17) Colby's equation was used to determine the herbicidal effects expected from the mixtures (Colby, S. R. 1967. Calculation of the synergistic and antagonistic response of herbicide combinations. Weeds 15:20-22.).
# GALAP = assay: as above; format: in vivo, Galium aparine L.; conditions: 21 DAA
# Description: as §13, §14, §15, §16, §17
# KCHSC = assay: as above; format: in vivo, Kochia scoparia (L.) Schrad.; conditions: 21 DAA
# Description: as §13, §14, §15, §16, §17
# PAPRH = assay: as above; format: in vivo, Papaver rhoeas L.; conditions: 21 DAA
# Description: as §13, §14, §15, §16, §17
# SASKR = assay: as above; format: in vivo, Salsola tragus L.; conditions: 21 DAA
# Description: as §13, §14, §15, §16, §17
# SINAR = assay: as above; format: in vivo, Sinapis arvensis L.; conditions: 21 DAA
# Description: as §13, §14, §15, §16, §17
# STEME = assay: as above; format: in vivo, Stellaria media (L.) Vill.; conditions: 21 DAA
# Description: as §13, §14, §15, §16, §17
compound,measurement,setting,value
"CCN(CC)C(=O)SCc1ccc(Cl)cc1 [Thiobencarb, S-[(4-chlorophenyl)methyl]N,N-diethylcarbamothioate]",Visual Weed Control Obs,DIGSA,20%
same,Visual Weed Control Obs,ECHCO; 560 gai/ha,45%
same,Visual Weed Control Obs,ECHCO; 1120 gai/ha,40%
same,Visual Weed Control Obs,CYPIR; 560 gai/ha,0%
same,Visual Weed Control Obs,CYPIR; 1120 gai/ha,0%
same,Visual Weed Control Obs,CYPIR; 2240 gai/ha,0%
same,Visual Weed Control Obs,ISCRU; 1120 gai/ha,0%
same,Visual Weed Control Obs,ISCRU; 2240 gai/ha,0%
same,Visual Weed Control (%) - 20 DAA ECHOR Obs,ECHOR; 1120 gai/ha,60%
same,pest or weed control at 1120 g/ha,"ECHOR; Echinochloa oryzoides, 480 h, 1120 gai/ha, 20 DAA, read-out: Visual Weed Control ECHOR Obs",60%
same,pest or weed control at 2240 g/ha,"ECHOR; Echinochloa oryzoides, 480 h, 2240 gai/ha, 20 DAA, read-out: Visual Weed Control ECHOR Obs",90%
same,Visual Weed Control CYPRO Obs,CYPRO; 1120 gai/ha,0%
same,Visual Weed Control CYPRO Obs,CYPRO; 2240 gai/ha,0%
"CCCN(CCC)C(=O)SCc1ccccc1 [Prosulfocarb, S-(phenylmethyl) dipropylcarbamothioate]",Visual Weed Control CHEAL Obs,CHEAL; 1000 gai/ha,10%
same,Visual Weed Control CHEAL Obs,CHEAL; 2000 gai/ha,15%
same,Visual Weed Control GALAP Obs,GALAP; 1000 gai/ha,15%
same,Visual Weed Control GALAP Obs,GALAP; 2000 gai/ha,40%
same,Visual Weed Control GALAP Obs,GALAP; 4000 gai/ha,67%
same,Visual Weed Control KCHSC Obs,KCHSC; 1000 gai/ha,10%
same,Visual Weed Control KCHSC Obs,KCHSC; 2000 gai/ha,15%
same,Visual Weed Control KCHSC Obs,KCHSC; 4000 gai/ha,75%
same,Visual Weed Control PAPRH Obs,PAPRH; 1000 gai/ha,5%
same,Visual Weed Control PAPRH Obs,PAPRH; 2000 gai/ha,10%
same,Visual Weed Control PAPRH Obs,PAPRH; 4000 gai/ha,13%
same,Visual Weed Control SASKR Obs,SASKR; 1000 gai/ha,5%
same,Visual Weed Control SASKR Obs,SASKR; 2000 gai/ha,5%
same,Visual Weed Control SASKR Obs,SASKR; 4000 gai/ha,63%
same,Visual Weed Control SINAR Obs,SINAR; 1000 gai/ha,13%
same,Visual Weed Control SINAR Obs,SINAR; 2000 gai/ha,18%
same,Visual Weed Control STEME Obs,STEME; 1000 gai/ha,0%
same,Visual Weed Control STEME Obs,STEME; 2000 gai/ha,10%
same,Visual Weed Control STEME Obs,STEME; 4000 gai/ha,73%
